Test results published in patent publication US11358939B2, “1,4-benzodiazepin-2-one derivatives and use thereof” (priority 2017, dated 2022).

Key:
[1] = test system: food consumption by rats; assay: Action on appetite, Anorexia method (liquid food consumption); format: in vivo; details: for Amount of consumed liquid food during 30 min in ml / Food consumption, % of control: dose 0,1 mg/kg intraperitoneally
Description: (§1) Studies of pharmacological activity of 3-arylamino-1,3-dihydro-2H-benzo[e][1,4]diazepin-2-ones, namely, their action of appetite, assessment of antihypoxic and antidepressant activity was performed in white male rats with body mass 150-180 g and male mice with body mass 18-22 g. The animals were kept on a standard laboratory diet and natural lighting. Animals of control group were given a water-Tween suspension. Test compounds were administered in a suspension with Tween-80 Reference drugs were the hormone leptin, in 0.0002 mg/kg dose, and a well-known antidepressant amitriptyline (solution for injections in 1 ml vials. Test compounds and the water-Tween suspension were administered in a dose of 0.2 ml/100 g of rat body mass.
The action of the compounds on rat appetite was studied using «norexia» method. For 2 weeks in an experimental equipment the rats were conditioned to consume liquid food. Then a water-Tween suspension of test articles was administered intraperitoneally to conditioned animals one day before the experiment. After 40 minutes the animals were allowed access to liquid food and the amount of consumed food (in ml) of every rat was registered every 30 minutes for 3 hours. The next day after 2 hours of deprivation the rats in control group were administered a water-Tween suspension intraperitoneally, while the test group was administered the test articles. After 40 minutes the animals were allowed access to liquid food and the amount of consumed food (in ml) of every rat was registered every 30 minutes for 3 hours. Then all food consumption values for each rat were summed and compared to control values. The control group has consumed on average 7 ml of liquid food per 30 minutes. The effect was calculated in percentage compared to control.

[2] = test system: mice in acute confined space hypoxia; assay: Antihypoxic activity, acute confined space hypoxia (CSH); format: in vivo; details: 10 mg/kg
Description: as §1
Screening of antihypoxic activity was performed using the model of acute confined space hypoxia (CSH). CSH was modeled by placing mice into isolated sealed chambers (V=200 ml). Each group included 10 animals. The observation lasted until the death of the animals. Antihypoxic effect was assessed by the survival duration (in min) compared to control, which was taken as 100%, and according to the calculation of antihypoxic protection ratio (Rpr):Rpr=Tt/Tc, where Tt—average animal survival time in the test group; Tc—average animal survival time in the control group.

[3] = test system: writhes induced by intraperitoneal acetic acid; details: prior art section; cited from earlier work
[4] = test system: food consumption by rats; assay: Action on appetite, Anorexia method (liquid food consumption); format: in vivo; details: leptin dose 20 nM
[5] = test system: immobility time of mice; assay: Antidepressant activity, Porsolt forced swimming test; format: in vivo
Description: as §1
Antidepressant activity was studied using «Porsolt forced swimming test» [15], which models stress in mice by forcing them to swim in a narrow translucent cylinder, filled by ⅓ volume with water at 23-25° C. temperature. Antidepressant action is assessed by the reduction in immobility time, when the animals have minimal amount of paddling, in seconds or percentage compared to control. The animal behavior was registered for 4 minutes after acclimatization for 2 minutes.

[6] = test system: mice in acute confined space hypoxia; details: reference drug, ref. [14]; cited from earlier work
[7] = test system: writhes induced by intraperitoneal acetic acid; assay: Analgesic activity, acetic acid-induced writhing test (peripheral pain model); format: in vivo
Description: Assessment of analgesic activity was performed in a model of peripheral pain based on chemical pain induced by intraperitoneal administration of acetic acid, leading to involuntary contractions of abdominal muscles, termed “writhes”, accompanied by hind leg extension and spine arching. The writhes were induced by 0.75% solution of acetic acid, which was administered intraperitoneally 40 min after intraperitoneal administration of test compounds in 0.001-5 mg/kg dose range. […] Analgesic activity was assessed by the ability of the compounds to reduce the number of writhes in test group compared to control group, and indicated as percentage using the following formula: AA=(Wc−Wt/Wc)×100%,
where AA—analgesic activity in %;
Wc—average number of writhes in control group;
Wt—average number of writhes in test group
Test compounds were studied in comparison with the reference drug sodium diclofenac in 10 mg/kg dose. ED50 was calculated using Prozorovsky method.

## O=C1Nc2ccc([N+](=O)[O-])cc2C(c2ccccc2F)=NC1Nc1cccc(Cl)c1 (centres unmarked) [Compound 357]
[1]
  Amount of consumed liquid food during 30 min in ml: 5,9 ± 2,2 ml
  Food consumption, % of control: 80%
[2]
  Increase of mice survival time during acute confined space hypoxia compared to control: 40.5%

## CCOC1N=C(c2ccccc2)c2cc(Br)ccc2N(CC(=O)OC)C1=O (centres unmarked) [methyl-2-(7-bromo-3-etoxy-2-oxo-5-phenyl-2,3-dihydro-1H-benzo[e][1,4]diazepin-1-yl) acetate]
[3]
  ED50, analgesic activity in acetic acid-induced writhing test (prior art): 0.47 ± 0.15 mg/kg

## leptin
[4]
  Amount of consumed liquid food during 30 min in ml: 2,5 ± 0,2 ml
  Food consumption, % of control: 37%
[1]; leptin 0.0002 mg/kg
  Reduction in appetite and food consumption compared to control: 63%
[5]; 0.0002 mg/kg
  Reduction of immobility time compared to control: 14%
[6]
  Antihypoxic properties: no antihypoxic properties

## O=C1Nc2ccc(OC(F)(F)F)cc2C(c2ccccc2)=NC1Nc1ccccc1Cl (centres unmarked) [Compound 194]
[1]; Table 6 dose 0,1 mg/kg
  Reduction in appetite and food consumption compared to control: 47%
[1]
  Amount of consumed liquid food during 30 min in ml: 3,5 ± 2,3 ml
  Food consumption, % of control: 47%
[5]; 1 mg/kg
  Reduction of immobility time compared to control: 40%

## O=C1Nc2ccc([N+](=O)[O-])cc2C(c2ccccc2)=NC1Nc1ccccc1[N+](=O)[O-] (centres unmarked)
other
  melting point: 225 to 227 °C

## O=C1Nc2ccc([N+](=O)[O-])cc2C(c2ccccc2)=NC1Nc1ccc(Cl)cc1 (centres unmarked) [Compound 250]
[1]
  Amount of consumed liquid food during 30 min in ml: 6,3 ± 3,2 ml
  Food consumption, % of control: 85%
[2]
  Increase of mice survival time during acute confined space hypoxia compared to control: 70%

## CCCOC1N=C(c2ccccc2)c2cc([N+](=O)[O-])ccc2N(CC(=O)OC)C1=O (centres unmarked) [Compound 48, Methyl-2-(7-nitro-2-oxo-5-phenyl-3-propoxy-2,3-dihydro-1H-benzo[e][1,4]di-azepin-1-yl)acetate]
other
  melting point: 214 to 215 °C
[7]; compounds Ia, 1 mg/kg intraperitoneally, 40 min before 0.75% acetic acid
  Writhing inhibition, % of control in 1 mg/kg dose: 85%
[7]; ip, intraperitoneal, Prozorovsky method
  ED50: 0.058 ± 0.015 mg/kg
